From paper PMC8040626, “A unique Malpighian tubule architecture in Tribolium castaneum informs the evolutionary origins of systemic osmoregulation in beetles” (Proceedings of the National Academy of Sciences of the …, 2021)
Entries after “also recorded” stand apart in the source; their conditions may differ.

Tests used:
[1] = system: basolateral membranes of SCs in MTs; test: Ex vivo ligand-receptor binding assay, T. molitor tubules; parameters: species or system Tenebrio molitor; conditions: labelled peptide 10^-7 M, confocal microscopy
Source text: Fig. 2. The Urn8 receptor localizes to a secondary cell type in MTs and is activated by its endogenous ligands DH37 and DH47. (A) Urn8R is expressed in a subpopulation of cells throughout the “free” part of the T. castaneum MT (small arrows); there are 53 ± 2 (n = 8) cells per tubule. […] (Scale bars, Left, 150 μm; Middle and Right, 30 μm.) (B) Western blot analysis of protein extracts from T. castaneum tubules showing that the anti-Urn8R antiserum recognizes a protein of a size of approximately 50 to 55 kDa, consistent with the predicted size of the receptor (51.6 kDa for the dominant -RA isoform, arrow). (C) Application of fluorophore-coupled receptor agonists DH37-F and DH47-F (10^−7 M) to T. castaneum and T. molitor MTs. […] Values are expressed as mean ± SEM. […]
(§1) Ligand-Receptor Binding Assay. […] Next, the tissues were set-up in a matched-pair protocol, in which one batch was incubated in the appropriate insect saline added the labelled neuropeptide analogue ([…]) and DAPI (1 µg ml-1), while the other was incubated in just DAPI; the latter batch was used to adjust baseline filter and exposure settings to minimize auto-fluorescence during image acquisition.
(§2) Images were subsequently recorded on a Zeiss LSM 800 confocal microscope using baseline filter and exposure settings. […]

[2] = system: tubule basolateral membranes; test: Ex vivo ligand-receptor binding assay, all beetle species sampled; parameters: species or system all species sampled (beetles)
Source text: (§3) Collectively, our work points to a model in which beetle MT function operates via a two-cell–type model that is different from that of all other higher insects ([11]). To determine whether this epithelial organization is universal among beetles or, alternatively, a derived trait specific to the drought-resistant tenebrionid species, we adapted the ligand-receptor binding assay (as used in Fig. 2C) to systematically map MT tissue architecture across the beetle phylogeny. In our sampling strategy, we prioritized species representative of the larger beetle families while trying to select species inhabiting different types of ecological niches (dry, moist, or aquatic). […]
as §1, §2
(§4) Electrophysiological assays. […] In brief, the ion-selective microelectrode voltage was measured at a position close to the tissue (3–5 μm) and subsequently at a more distant position (app. 50 μm) from the tubule. […]

[3] = system: small-nucleated SC-type of MTs; test: Ex vivo ligand-receptor binding assay, polyphagan beetles; conditions: all polyphagan beetles
Source text: as §3, §1, §2, §4

[4] = system: Urn8R on the SC basal membrane; test: Ex vivo ligand-receptor binding assay, T. castaneum tubules; parameters: species or system Tribolium castaneum; conditions: T. castaneum MTs, labelled peptide 10^-7 M, confocal microscopy
Source text: To dissect the molecular mechanism underpinning Urn8-mediated control of tubule function, we immunolocalized Urn8R to the tubule epithelium of T. castaneum. […] The SC identity of this Urn8R-expressing cell type was verified by colocalization of the Tiptop transcription factor, which is known to control SC differentiation in other insects ([21]) (SI Appendix, Fig. S2A). The fact that the Urn8 pathway is confined exclusively to SCs in T. castaneum is in contrast to that of all other insects studied to date in which this hormonal circuit is diagnostic of PC activity, the majority cell type ([22]–[24]). […] Specificity of the antibody was verified by the lack of staining in MTs from Urn8R-silenced animals, and by the fact that the molecular weight of the protein corresponds to the predicted size of the receptor (Fig. 2 A and B). […]
as §1, §2

[5] = system: larger PC-type of MTs; test: Ex vivo ligand-receptor binding assay, adephagan species
Source text: as §3, §1, §2, §4

Binding of fluorophore-coupled ligand [2] | Substance | Binding of fluorophore-coupled ligand [1] | Binding of fluorophore-coupled ligand, cell type [3] | Binding of fluorophore-coupled ligand [4] | Binding of fluorophore-coupled ligand, cell type [5]
specific and displaceable | TMR-C5-maleimide-AGALGESGASLSIVNSLDVLRNRLLLEIARKKAKEGANRNRQILLSLamide [DH47-F, fluorophore-coupled DH47 analog, TMR-C5-maleimide labelled] | bind to basolateral membranes of SCs; also recorded: Specific and displaceable binding to the SCs | localized entirely to a small-nucleated SC-type | bind to basolateral membranes of SCs; also recorded: Specific and displaceable binding to the SCs | confined to a larger PC-type
specific and displaceable | TMR-C5-maleimide-SPTISITAPIDVLRKTWAKENMRKQMQINREYLKNLQamide [DH37-F, fluorophore-coupled DH37 analog, TMR-C5-maleimide labelled] | bind to basolateral membranes of SCs; also recorded: Specific and displaceable binding to the SCs | localized entirely to a small-nucleated SC-type | bind to basolateral membranes of SCs; also recorded: Specific and displaceable binding to the SCs | confined to a larger PC-type
